Assays:
salicylate synthase Irp9 = salicylate synthase Irp9 (Yersinia enterocolitica, UniProt Q9X9I8); type: biochemical
P. aeruginosa PAO1 = experiment: Bacterial growth inhibition, wildtype PAO1; type: cell-based, Pseudomonas aeruginosa; conditions: high iron (200 µM FeCl3), 24 hrs
ΔpchE PAO1 = type: cell-based, Pseudomonas aeruginosa; conditions: high iron (200 µM FeCl3), 24 hrs
chorismate mutase EcCM = chorismate mutase EcCM (Escherichia coli, UniProt P0A9J8); type: biochemical, E. coli
ΔpvdA PAO1 = type: cell-based, Pseudomonas aeruginosa; conditions: high iron (200 µM FeCl3), 24 hrs
[1] = target: isochorismate-pyruvate lyase PchB (Pseudomonas aeruginosa, UniProt Q51507); type: biochemical
PchB = conditions: read-out: Ki PchB; cited from earlier work

Chain of isochorismate-pyruvate lyase PchB (Q51507 whole entry): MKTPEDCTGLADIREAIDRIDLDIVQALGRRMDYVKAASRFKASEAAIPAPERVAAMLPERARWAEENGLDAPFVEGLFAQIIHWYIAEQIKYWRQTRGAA
Chain of salicylate synthase Irp9 (Q9X9I8 1-434): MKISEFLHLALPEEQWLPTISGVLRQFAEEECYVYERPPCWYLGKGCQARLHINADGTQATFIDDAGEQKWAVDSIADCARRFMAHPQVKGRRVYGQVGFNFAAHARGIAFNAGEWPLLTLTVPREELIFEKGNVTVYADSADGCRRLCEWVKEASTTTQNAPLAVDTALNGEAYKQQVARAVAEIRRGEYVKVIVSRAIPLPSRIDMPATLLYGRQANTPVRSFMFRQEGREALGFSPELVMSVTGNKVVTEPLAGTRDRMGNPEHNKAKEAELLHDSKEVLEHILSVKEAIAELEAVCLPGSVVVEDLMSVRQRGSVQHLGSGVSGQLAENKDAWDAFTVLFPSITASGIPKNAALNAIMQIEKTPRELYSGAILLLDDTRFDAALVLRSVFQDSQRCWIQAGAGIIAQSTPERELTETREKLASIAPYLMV
Chain of chorismate mutase EcCM (P0A9J8 1-92): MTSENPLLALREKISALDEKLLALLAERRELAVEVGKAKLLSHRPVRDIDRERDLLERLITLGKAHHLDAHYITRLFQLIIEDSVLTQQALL

| Compound | mode of inhibition of Irp9 (salicylate synthase Irp9) | EC50 growth inhibition PAO1 p.a. (P. aeruginosa PAO1) | EC50 growth inhibition ΔpchE p.a. (ΔpchE PAO1) | mode of inhibition of EcCM (chorismate mutase EcCM) | EC50 growth inhibition ΔpvdA p.a. (ΔpvdA PAO1) | mode of inhibition of PchB [1] | Ki (PchB) [mM] |
| --- | --- | --- | --- | --- | --- | --- | --- |
| COC(=O)Oc1c([N+](=O)[O-])cc2oc(=O)sc2c1[N+](=O)[O-] [Compound 10] | competitive inhibitor | did not cause growth inhibition | did not cause growth inhibition | competitive inhibitors | did not cause growth inhibition | competitive inhibitors |  |
| O=P(O)(O)C12CC3CC(CC(C3)C1)C2 [adamantane-1-phosphonate] |  |  |  |  |  |  | > 5 |
